Assay results: patent US10183942B2, “JAK kinase inhibitor compounds for treatment of respiratory disease” (THERAVANCE BIOPHARMA R&D IP, LLC, priority 2015, dated 2019)

How the values were obtained:
[1] = Dynamic moisture sorption assessment; type: physicochemical
Description: Dynamic moisture sorption (DMS) measurement was performed using a VTI atmospheric microbalance, SGA-100 system (VTI Corp., Hialeah, Fla. 33016). A weighed sample was used and the humidity was lowest possible value (close to 0% RH) at the start of the analysis. The DMS analysis consisted of an initial drying step (˜0% RH) for 120 minutes, followed by two cycles of sorption and desorption with a scan rate of 5% RH/step over the humidity range of 5% RH to 90% RH. The DMS run was performed isothermally at 25° C.

[2] = Pharmacokinetics in plasma and lung in mouse; type: in vivo; details: oral aspiration 0.2 mg/mL 50 uL, lung AUC / plasma AUC
Description: Plasma and lung levels of test compounds and ratios thereof were determined in the following manner. BALB/c mice from Charles River Laboratories were used in the assay. Test compounds were individually formulated in 20% propylene glycol in pH 4 citrate buffer at a concentration of 0.2 mg/mL and 50 uL of the dosing solution was introduced into the trachea of a mouse by oral aspiration. At various time points (typically 0.167, 2, 6, 24 hr) post dosing, blood samples were removed via cardiac puncture and intact lungs were excised from the mice. Blood samples were centrifuged (Eppendorf centrifuge, 5804R) for 4 minutes at approximately 12,000 rpm at 4° C. to collect plasma. Lungs were padded dry, weighed, and homogenized at a dilution of 1:3 in sterile water. Plasma and lung levels of test compound were determined by LC-MS analysis against analytical standards constructed into a standard curve in the test matrix. A lung to plasma ratio was determined as the ratio of the lung AUC in μg hr/g to the plasma AUC in […], where AUC is conventionally defined as the area under the curve of test compound concentration vs. time.

JAK1 = JAK1 (Homo sapiens (Human), UniProt P23458)
Chain of JAK1 (P23458 whole entry): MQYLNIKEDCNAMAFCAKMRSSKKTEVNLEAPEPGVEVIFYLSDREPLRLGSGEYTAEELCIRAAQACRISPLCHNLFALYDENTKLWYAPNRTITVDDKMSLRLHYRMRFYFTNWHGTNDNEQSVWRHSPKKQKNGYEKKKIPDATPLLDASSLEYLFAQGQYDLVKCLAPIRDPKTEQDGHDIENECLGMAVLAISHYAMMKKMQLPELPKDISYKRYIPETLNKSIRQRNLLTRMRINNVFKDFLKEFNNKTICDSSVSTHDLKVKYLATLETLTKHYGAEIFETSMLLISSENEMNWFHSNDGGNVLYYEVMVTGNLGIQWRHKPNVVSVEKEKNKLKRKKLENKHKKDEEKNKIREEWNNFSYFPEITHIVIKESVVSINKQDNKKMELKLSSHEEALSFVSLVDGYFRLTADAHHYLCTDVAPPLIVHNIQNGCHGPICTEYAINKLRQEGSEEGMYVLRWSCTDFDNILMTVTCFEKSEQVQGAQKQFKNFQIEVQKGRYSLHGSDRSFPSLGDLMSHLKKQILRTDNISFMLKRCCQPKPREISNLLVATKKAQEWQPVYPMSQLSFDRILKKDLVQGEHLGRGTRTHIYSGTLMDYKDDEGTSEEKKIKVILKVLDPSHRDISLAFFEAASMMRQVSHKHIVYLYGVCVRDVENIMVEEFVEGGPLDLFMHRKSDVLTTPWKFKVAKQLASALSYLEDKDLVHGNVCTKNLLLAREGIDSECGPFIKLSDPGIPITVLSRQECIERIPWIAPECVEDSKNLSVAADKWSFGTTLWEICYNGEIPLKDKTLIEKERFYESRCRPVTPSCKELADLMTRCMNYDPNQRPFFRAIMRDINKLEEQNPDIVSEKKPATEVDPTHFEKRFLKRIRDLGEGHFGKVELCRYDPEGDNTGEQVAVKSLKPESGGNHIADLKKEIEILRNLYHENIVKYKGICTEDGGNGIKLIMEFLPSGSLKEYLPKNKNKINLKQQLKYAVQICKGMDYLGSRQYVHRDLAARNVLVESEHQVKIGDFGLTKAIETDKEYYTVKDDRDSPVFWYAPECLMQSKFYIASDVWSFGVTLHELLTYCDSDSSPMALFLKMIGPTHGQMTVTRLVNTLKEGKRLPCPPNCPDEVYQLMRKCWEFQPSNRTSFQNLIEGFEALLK

[3] = tested on: IL-13 induced pSTAT6 induction in lung tissue; test: Murine model of IL-13 induced pSTAT6 induction in lung tissue; type: in vivo; details: mouse lung; for inhibition of STAT6 phosphorylation in the pharmacodynamic assay: IL-13 challenge 4 h after dose; for lung concentration smaller than that of the corresponding compound of the invention by a factor: pharmacodynamic assay, C-1 vs 1, C-2 vs 7, C-3 vs 13, C-4 vs 6
Description: 11-13 is an important cytokine underlying the pathophysiology of asthma (Kudlacz et al. Eur. J. Pharmacol, 2008, 582, 154-161). IL-13 binds to cell surface receptors activating members of the Janus family of kinases (JAK) which then phosphorylate STAT6 and subsequently activates further transcription pathways. In the described model, a dose of IL-13 was delivered locally into the lungs of mice to induce the phosphorylation of STAT6 (pSTAT6) which is then measured as the endpoint.
Adult balb/c mice from Harlan were used in the assay. On the day of study, animals were lightly anesthetized with isoflurane and administered either vehicle or test compound (0.5 mg/mL, 50 μL total volume over several breaths) via oral aspiration. Animals were placed in lateral recumbency post dose and monitored for full recovery from anesthesia before being returned to their home cage. Four hours later, animals were once again briefly anesthetized and challenged with either vehicle or IL-13 ([…] total dose delivered, 50 μL total volume) via oral aspiration before being monitored for recovery from anesthesia and returned to their home cage. One hour after vehicle or IL-13 administration, lungs were collected for both pSTAT6 detection using an anti-pSTAT6 ELISA (rabbit mAb capture/coating antibody; mouse mAb detection/report antibody: anti-pSTAT6-pY641; secondary antibody: anti-mouse IgG-HRP) and analyzed for total drug concentration as described above in Assay 4.
Selected compounds of the invention were tested in the assay. Activity in the model is evidenced by a decrease in the level of pSTAT6 present in the lungs of treated animals at 5 hours compared to the vehicle treated, IL-13 challenged control animals. The difference between the control animals which were vehicle-treated, IL-13 challenged and the control animals which were vehicle-treated, vehicle challenged dictated the 0% and 100% inhibitory effect, respectively, in any given experiment.

[4] = tested on: interleukin-13 induced STAT6 phosphorylation in BEAS-2B human lung epithelial cells; test: Cellular JAKI potency assay (AlphaScreen, BEAS-2B); type: cell-based; details: C-1 vs 1, C-2 vs 7, C-3 vs 13, C-4 vs 6

Row | Lung to Plasma ratio Assay 4 [2] | Compound | Ki (JAK1) [nM] | also measured
1 | – | CCc1cc(O)c(F)cc1-c1ccc2c(-c3nc4c([nH]3)CCN(C3CCN(C)CC3)C4)n[nH]c2c1 [crystalline hydrate, Crystalline hydrate of 5-ethyl-2-fluoro-4-(3-(5-(1-methylpiperidin-4-yl)-4,5,6,7-tetrahydro-1H-imidazo[4,5-c]pyridin-2-yl)-1H-indazol-6-yl)phenol] | – | weight gain in dynamic moisture sorption ([1]; 5% to 90% relative humidity, about 25° C.): less than 0.12%; hygroscopicity ([1]; two cycles of sorption and desorption): non-hygroscopic
2 | A (A denotes a ratio >100) | CCc1cc(O)c(F)cc1-c1ccc2c(-c3nc4c([nH]3)CCN(C[C@H]3COCCN3)C4)n[nH]c2c1 [Example 13, (S)-5-Ethyl-2-fluoro-4-(3-(5-(morpholin-3-ylmethyl)-4,5,6,7-tetrahydro-1H-imidazo[4,5-c]pyridin-2-yl)-1H-indazol-6-yl)phenol] | – | –
3 | – | CCc1cc(O)c(F)cc1-c1ccc2c(-c3nc4c([nH]3)CCN(C3CN(CC)C3)C4)n[nH]c2c1 [Example 1-3] | < 0.1 | –
4 | A (A denotes a ratio >100) | CCc1cc(O)c(F)cc1-c1ccc2c(-c3nc4c([nH]3)CCN(C[C@@H]3COCCN3)C4)n[nH]c2c1 [Example 14, (R)-5-Ethyl-2-fluoro-4-(3-(5-(morpholin-3-ylmethyl)-4,5,6,7-tetrahydro-1H-imidazo[4,5-c]pyridin-2-yl)-1H-indazol-6-yl)phenol] | – | –
5 | – | CCc1cc(O)c(F)cc1-c1ccc2c(-c3nc4c([nH]3)CCN(C3CN(C5CCS(=O)(=O)C5)C3)C4)n[nH]c2c1 (stereo not shown) [Example 1-15] | – | inhibition of STAT6 phosphorylation in the pharmacodynamic assay [3]: exceptions
6 | – | CCc1cc(O)c(F)cc1-c1ccc2c(-c3nc4c([nH]3)CCN(CCNC3(C#N)CC3)C4)n[nH]c2c1 [Example 3-1] | – | inhibition of STAT6 phosphorylation in the pharmacodynamic assay [3]: exceptions
7 | – | CCc1cc(O)c(F)cc1-c1ccc2c(-c3nc4c([nH]3)CCN(C3CC(C)C3)C4)n[nH]c2c1 (stereo not shown) [Example C-1, 5-Ethyl-2-fluoro-4-(3-(5-(3-methylcyclobutyl)-4,5,6,7-tetrahydro-1H-imidazo[4,5-c]pyridin-2-yl)-1H-indazol-6-yl)phenol] | – | lung concentration smaller than that of the corresponding compound of the invention by a factor [3]: 36
8 | – | CCc1cc(O)c(F)cc1-c1ccc2c(-c3nc4c([nH]3)CCN(C3CCC(C)CC3)C4)n[nH]c2c1 (stereo not shown) [Example C-4] | – | fold less potent than the corresponding compound of the invention in the BEAS-2B cellular assay [4]: 6 fold; lung concentration smaller than that of the corresponding compound of the invention by a factor [3]: 23
9 | – | CCc1cc(O)c(F)cc1-c1ccc2c(-c3nc4c([nH]3)CCN(C3CCNCC3)C4)n[nH]c2c1 [Example 2-3] | < 0.1 | –
10 | – | CCc1cc(O)c(F)cc1-c1ccc2c(-c3nc4c([nH]3)CCN(C3CN(CCC#N)C3)C4)n[nH]c2c1 [Example 1-8] | < 0.1 | –
11 | A (A denotes a ratio >100) | CCc1cc(O)c(F)cc1-c1ccc2c(-c3nc4c([nH]3)CCN(C[C@@H]3CCCN3C)C4)n[nH]c2c1 [Example 11, (S)-5-ethyl-2-fluoro-4-(3-(5-((1-methylpyrrolidin-2-yl)methyl)-4,5,6,7-tetrahydro-1H-imidazo[4,5-c]pyridin-2-yl)-1H-indazol-6-yl)phenol] | – | –
12 | A (A denotes a ratio >100) | CCc1cc(O)c(F)cc1-c1ccc2c(-c3nc4c([nH]3)CCN(CCN3CCC[C@@H]3C)C4)n[nH]c2c1 [Example 15, (S)-5-ethyl-2-fluoro-4-(3-(5-(2-(2-methylpyrrolidin-1-yl)ethyl)-4,5,6,7-tetrahydro-1H-imidazo[4,5-c]pyridin-2-yl)-1H-indazol-6-yl)phenol] | – | –
13 | – | CCc1cc(O)c(F)cc1-c1ccc2c(-c3nc4c([nH]3)CCN(C3CCNC3)C4)n[nH]c2c1 (stereo not shown) [Example 9-1] | < 0.1 | –
14 | – | CCc1cc(O)c(F)cc1-c1ccc2c(-c3nc4c([nH]3)CCN(CC3CCCOC3)C4)n[nH]c2c1 (stereo not shown) [Example C-3] | – | fold less potent than the corresponding compound of the invention in the BEAS-2B cellular assay [4]: 3 fold; lung concentration smaller than that of the corresponding compound of the invention by a factor [3]: 13
15 | – | CCc1cc(O)c(F)cc1-c1ccc2c(-c3nc4c([nH]3)CCN(C3CN(CCO)C3)C4)n[nH]c2c1 [Example 1-1] | < 0.1 | –
16 | A (A denotes a ratio >100) | CCc1cc(O)c(F)cc1-c1ccc2c(-c3nc4c([nH]3)CCN(CCNC3CC(OC)C3)C4)n[nH]c2c1 (stereo not shown) [Example 8, 5-Ethyl-2-fluoro-4-(3-(5-(2-((3-methoxycyclobutyl)amino)ethyl)-4,5,6,7-tetrahydro-1H-imidazo[4,5-c]pyridin-2-yl)-1H-indazol-6-yl)phenol] | – | –
17 | – | CCc1cc(O)c(F)cc1-c1ccc2c(-c3nc4c([nH]3)CCN(C3CN(CCOC)C3)C4)n[nH]c2c1 [Example 1-6] | < 0.1 | –
18 | A (A denotes a ratio >100) | CCc1cc(O)c(F)cc1-c1ccc2c(-c3nc4c([nH]3)CCN(CCN(C)CC(C)C)C4)n[nH]c2c1 [Example 3-33] | – | –
19 | – | CCc1cc(O)c(F)cc1-c1ccc2c(-c3nc4c([nH]3)CCN(CCC(C)C)C4)n[nH]c2c1 [Example C-2] | – | fold less potent than the corresponding compound of the invention in the BEAS-2B cellular assay [4]: 6 fold; lung concentration smaller than that of the corresponding compound of the invention by a factor [3]: 52

Row | Compound | Lung to Plasma ratio Assay 4 [2] | Ki (JAK1) [nM] | also measured
20 | CCc1cc(O)c(F)cc1-c1ccc2c(-c3nc4c([nH]3)CCN(CC3CNC3)C4)n[nH]c2c1 [Example 14-7] | A (A denotes a ratio >100) | < 0.1 | –
